Measurements from patent US20220033397A1, “PHARMACEUTICAL COMPOUNDS AND THEIR USE AS INHIBITORS OF UBIQUITIN SPECIFIC PROTEASE 19 (USP19)” (ALMAC DISCOVERY LIMITED, priority 2018, published 2022).

The compounds below were run against T1, Full-length USP19 (Homo sapiens, UniProt O94966) (assay: USP19 fluorescence polarisation (FP) homogeneous assay with Ubiquitin-Lys-TAMRA substrate). Details: 2.5 nM USP19, 30 min pre-incubation, average of at least two duplicate experiments.
T1 construct: Full-length USP19 was purchased from Boston Biochem (E-576); purchased Boston Biochem E-576
T1 sequence (O94966 1-1318): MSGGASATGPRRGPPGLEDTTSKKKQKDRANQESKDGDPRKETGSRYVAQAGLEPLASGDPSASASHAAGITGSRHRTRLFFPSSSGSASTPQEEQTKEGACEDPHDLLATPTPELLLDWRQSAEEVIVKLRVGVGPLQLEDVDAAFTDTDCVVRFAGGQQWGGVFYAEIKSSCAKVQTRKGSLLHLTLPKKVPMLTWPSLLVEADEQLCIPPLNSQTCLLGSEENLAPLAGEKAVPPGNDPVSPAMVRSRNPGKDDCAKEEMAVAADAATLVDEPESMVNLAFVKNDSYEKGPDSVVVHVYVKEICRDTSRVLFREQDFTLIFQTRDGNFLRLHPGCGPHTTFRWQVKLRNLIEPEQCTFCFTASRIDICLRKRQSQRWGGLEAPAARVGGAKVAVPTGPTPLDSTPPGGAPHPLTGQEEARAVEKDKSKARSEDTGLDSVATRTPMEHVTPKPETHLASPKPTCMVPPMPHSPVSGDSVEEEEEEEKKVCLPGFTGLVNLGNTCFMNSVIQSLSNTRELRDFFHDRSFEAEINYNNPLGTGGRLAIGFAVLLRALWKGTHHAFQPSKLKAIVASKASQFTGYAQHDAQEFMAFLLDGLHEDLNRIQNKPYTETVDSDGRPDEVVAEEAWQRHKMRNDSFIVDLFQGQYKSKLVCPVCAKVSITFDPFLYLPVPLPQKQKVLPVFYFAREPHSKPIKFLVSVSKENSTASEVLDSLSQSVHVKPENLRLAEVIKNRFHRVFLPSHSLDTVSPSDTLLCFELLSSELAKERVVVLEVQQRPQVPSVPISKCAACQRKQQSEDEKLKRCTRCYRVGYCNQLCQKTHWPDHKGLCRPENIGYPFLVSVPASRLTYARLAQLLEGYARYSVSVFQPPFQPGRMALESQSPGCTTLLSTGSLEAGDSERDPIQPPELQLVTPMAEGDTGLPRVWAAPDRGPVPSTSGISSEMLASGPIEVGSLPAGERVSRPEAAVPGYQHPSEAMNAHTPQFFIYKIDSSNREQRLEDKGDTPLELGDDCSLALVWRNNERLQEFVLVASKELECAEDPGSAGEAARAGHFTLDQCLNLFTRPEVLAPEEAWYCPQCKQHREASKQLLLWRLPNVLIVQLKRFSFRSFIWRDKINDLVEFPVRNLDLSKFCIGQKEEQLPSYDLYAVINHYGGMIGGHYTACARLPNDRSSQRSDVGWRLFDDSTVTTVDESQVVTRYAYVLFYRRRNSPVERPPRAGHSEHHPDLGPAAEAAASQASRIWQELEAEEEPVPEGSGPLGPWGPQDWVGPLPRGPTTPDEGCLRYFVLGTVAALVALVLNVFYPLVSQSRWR
Type: biochemical
Method in brief: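 Full-length USP19 preincubated 30 min at RT with inhibitor (200 μM to 2 μM series, 8–18 points) before adding 500 nM Ubiquitin-Lys-TAMRA substrate.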

Row | SMILES | IC50 [µM]
1 | O=C(N1CCC(O)(Cn2cnc3c(cnn3Cc3ccccc3)c2=O)C2(CCCC2)C1)N1CCOC[C@H]1c1ccccc1 (stereo partly drawn) [Example 167, 1-Benzyl-5-((10-hydroxy-7-((R)-3-phenylmorpholine-4-carbonyl)-7-azaspiro[4.5]decan-10-yl)methyl)-1,5-dihydro-4H-pyrazolo[3,4-d]pyrimidin-4-one] | 0.5 to 5
2 | C[C@H](CC(F)(F)F)C(=O)N1CCC(O)(Cn2cnc3c(cnn3Cc3ccccc3)c2=O)C2(CCCC2)C1 (stereo partly drawn) [Example 168, 1-Benzyl-5-((10-hydroxy-7-((R)-4,4,4-trifluoro-2-methylbutanoyl)-7-azaspiro[4.5]decan-10-yl)methyl)-1,5-dihydro-4H-pyrazolo[3,4-d]pyrimidin-4-one] | 5 to 50
3 | C[C@H](CC1CCCCC1)C(=O)N1CCC(O)(Cn2cnc3cn(C)nc3c2=O)C2(CCCC2)C1 (stereo partly drawn) [Example 173, 6-((7-((R)-3-Cyclohexyl-2-methylpropanoyl)-10-hydroxy-7-azaspiro[4.5]decan-10-yl)methyl)-2-methyl-2,6-dihydro-7H-pyrazolo[4,3-d]pyrimidin-7-one] | 5 to 50
4 | C[C@H](CC1CCCCC1)C(=O)N1CCC(O)(Cn2c(=O)c3cncnc3n2C)C2(CCCC2)C1 (stereo partly drawn) [Example 174, 2-((7-((R)-3-Cyclohexyl-2-methylpropanoyl)-10-hydroxy-7-azaspiro[4.5]decan-10-yl)methyl)-1-methyl-1,2-dihydro-3H-pyrazolo[3,4-d]pyrimidin-3-one] | 5 to 50
5 | Cn1c2ncncc2c(=O)n1CC1(O)CCN(C(=O)N2CCNC[C@H]2c2ccccc2)CC12CCCC2 (stereo partly drawn) [Example 175, 2-((10-Hydroxy-7-((R)-2-phenylpiperazine-1-carbonyl)-7-azaspiro[4.5]decan-10-yl)methyl)-1-methyl-1,2-dihydro-3H-pyrazolo[3,4-d]pyrimidin-3-one] | 5 to 50
6 | C[C@H](CC(F)(F)F)C(=O)N1CCC(O)(Cn2cnc3c(cnn3-c3ccccc3)c2=O)C2(CCCC2)C1 (stereo partly drawn) [Example 177, 5-((10-Hydroxy-7-((R)-4,4,4-trifluoro-2-methylbutanoyl)-7-azaspiro[4.5]decan-10-yl)methyl)-1-phenyl-1,5-dihydro-4H-pyrazolo[3,4-d]pyrimidin-4-one] | 5 to 50
7 | Cn1cc2ncn(CC3(O)CCN(C(=O)N4CCNC[C@H]4c4ccccc4)CC34CCCC4)c(=O)c2n1 (stereo partly drawn) [Example 179, 6-((10-Hydroxy-7-((R)-2-phenylpiperazine-1-carbonyl)-7-azaspiro[4.5]decan-10-yl)methyl)-2-methyl-2,6-dihydro-7H-pyrazolo[4,3-d]pyrimidin-7-one] | 5 to 50
8 | C[C@H](CC(F)(F)F)C(=O)N1CCC(O)(Cn2cnc3c(cnn3C)c2=O)C2(CCCC2)C1 (stereo partly drawn) [Example 180, 5-((10-Hydroxy-7-((R)-4,4,4-trifluoro-2-methylbutanoyl)-7-azaspiro[4.5]decan-10-yl)methyl)-1-methyl-1,5-dihydro-4H-pyrazolo[3,4-d]pyrimidin-4-one] | 5 to 50
9 | C[C@H](CC(F)(F)F)C(=O)N1CCC(O)(Cn2cnc3c(cnn3C3CC3)c2=O)C2(CCCC2)C1 (stereo partly drawn) [Example 181, 1-Cyclopropyl-5-((10-hydroxy-7-((R)-4,4,4-trifluoro-2-methylbutanoyl)-7-azaspiro[4.5]decan-10-yl)methyl)-1,5-dihydro-4H-pyrazolo[3,4-d]pyrimidin-4-one] | 5 to 50
10 | O=C(N1CC[C@@](O)(Cn2ccc3ncncc3c2=O)C2(CCCC2)C1)N1CCNC[C@H]1c1ccccc1 [Example 185, 6-(((S)-10-Hydroxy-7-((R)-2-phenylpiperazine-1-carbonyl)-7-azaspiro[4.5]decan-10-yl)methyl)pyrido[4,3-d]pyrimidin-5(6H)-one] | < 0.5
11 | CSc1cn(CC2(O)CCN(C(=O)N3CCNC[C@H]3c3ccccc3)CC23CCCC3)c(=O)cc1-c1ccccc1 (stereo partly drawn) [Example 186, 1-((10-Hydroxy-7-((R)-2-phenylpiperazine-1-carbonyl)-7-azaspiro[4.5]decan-10-yl)methyl)-5-(methylthio)-4-phenylpyridin-2(1H)-one] | < 0.5
12 | C[S+]([O-])c1cn(CC2(O)CCN(C(=O)N3CCNC[C@H]3c3ccccc3)CC23CCCC3)c(=O)cc1-c1ccccc1 (stereo partly drawn) [Example 187, 1-((10-Hydroxy-7-((R)-2-phenylpiperazine-1-carbonyl)-7-azaspiro[4.5]decan-10-yl)methyl)-5-(methylsulfinyl)-4-phenylpyridin-2(1H)-one] | < 0.5
13 | CS(=O)(=O)c1cn(CC2(O)CCN(C(=O)N3CCNC[C@H]3c3ccccc3)CC23CCCC3)c(=O)cc1-c1ccccc1 (stereo partly drawn) [Example 188, 1-((10-Hydroxy-7-((R)-2-phenylpiperazine-1-carbonyl)-7-azaspiro[4.5]decan-10-yl)methyl)-5-(methylsulfonyl)-4-phenylpyridin-2(1H)-one] | < 0.5

Other lines, results leading:

Row | IC50 [µM] | SMILES
14 | < 0.5 | O=C(N1CCC(O)(Cn2cnc3ccc(F)cc3c2=O)C2(CCCC2)C1)N1CCNC[C@H]1c1ccccc1 (stereo partly drawn) [Example 169, 6-Fluoro-3-((10-hydroxy-7-((R)-2-phenylpiperazine-1-carbonyl)-7-azaspiro[4.5]decan-10-yl)methyl)quinazolin-4(3H)-one]
15 | < 0.5 | O=C(N1CCC(O)(Cn2cnc3cc(F)c(F)cc3c2=O)C2(CCCC2)C1)N1CCNC[C@H]1c1ccccc1 (stereo partly drawn) [Example 170, 6,7-Difluoro-3-((10-hydroxy-7-((R)-2-phenylpiperazine-1-carbonyl)-7-azaspiro[4.5]decan-10-yl)methyl)quinazolin-4(3H)-one]
16 | < 0.5 | O=C(N1CCC(O)(Cn2ccc3ccncc3c2=O)C2(CCCC2)C1)N1CCNC[C@H]1c1ccccc1 (stereo partly drawn) [Example 171, 2-((10-Hydroxy-7-((R)-2-phenylpiperazine-1-carbonyl)-7-azaspiro[4.5]decan-10-yl)methyl)-2,7-naphthyridin-1(2H)-one]
17 | < 0.5 | O=C(N1CCC(O)(Cn2cnc3c(cnn3Cc3ccccc3)c2=O)C2(CCCC2)C1)N1CCNC[C@H]1c1ccccc1 (stereo partly drawn) [Example 172, 1-Benzyl-5-((10-hydroxy-7-((R)-2-phenylpiperazine-1-carbonyl)-7-azaspiro[4.5]decan-10-yl)methyl)-1,5-dihydro-4H-pyrazolo[3,4-d]pyrimidin-4-one]
18 | < 0.5 | C[C@H](CC1CCCCC1)C(=O)N1CCC(O)(Cn2cnc3c(cnn3-c3ccccc3)c2=O)C2(CCCC2)C1 (stereo partly drawn) [Example 176, 5-((7-((R)-3-Cyclohexyl-2-methylpropanoyl)-10-hydroxy-7-azaspiro[4.5]decan-10-yl)methyl)-1-phenyl-1,5-dihydro-4H-pyrazolo[3,4-d]pyrimidin-4-one]
19 | < 0.5 | O=C(N1CCC(O)(Cn2cnc3c(cnn3-c3ccccc3)c2=O)C2(CCCC2)C1)N1CCNC[C@H]1c1ccccc1 (stereo partly drawn) [Example 178, 5-((10-Hydroxy-7-((R)-2-phenylpiperazine-1-carbonyl)-7-azaspiro[4.5]decan-10-yl)methyl)-1-phenyl-1,5-dihydro-4H-pyrazolo[3,4-d]pyrimidin-4-one]
20 | < 0.5 | Cn1ncc2c(=O)n(CC3(O)CCN(C(=O)N4CCNC[C@H]4c4ccccc4)CC34CCCC4)cnc21 (stereo partly drawn) [Example 182, 5-((10-Hydroxy-7-((R)-2-phenylpiperazine-1-carbonyl)-7-azaspiro[4.5]decan-10-yl)methyl)-1-methyl-1,5-dihydro-4H-pyrazolo[3,4-d]pyrimidin-4-one]
21 | < 0.5 | O=C(N1CCC(O)(Cn2cnc3c(cnn3C3CC3)c2=O)C2(CCCC2)C1)N1CCNC[C@H]1c1ccccc1 (stereo partly drawn) [Example 183, 1-Cyclopropyl-5-((10-hydroxy-7-((R)-2-phenylpiperazine-1-carbonyl)-7-azaspiro[4.5]decan-10-yl)methyl)-1,5-dihydro-4H-pyrazolo[3,4-d]pyrimidin-4-one]
22 | < 0.5 | CSc1ncc2c(=O)n(C[C@]3(O)CCN(C(=O)N4CCNC[C@H]4c4ccccc4)CC34CCCC4)ccc2n1 [Example 184, 6-(((S)-10-Hydroxy-7-((R)-2-phenylpiperazine-1-carbonyl)-7-azaspiro[4.5]decan-10-yl)methyl)-2-(methylthio)pyrido[4,3-d]pyrimidin-5(6H)-one]
